These results are taken from patent US10975119B2, “Selective cysteine protease inhibitors and uses thereof” (Genesis Technologies Limited, priority 2011, dated 2021).

Where a name gives a salt, the structure may show the parent alone. Read-outs that look alike come from different tables or passages of the source.

Common to all, as to type: biochemical
The target of assay [1] is T1, Caspase-7 (Homo sapiens, UniProt P55210).
T1 construct: mixing the compounds with the respective active caspases; purchased BioVision K157-100
T1 sequence (P55210 24-198 limits assumed): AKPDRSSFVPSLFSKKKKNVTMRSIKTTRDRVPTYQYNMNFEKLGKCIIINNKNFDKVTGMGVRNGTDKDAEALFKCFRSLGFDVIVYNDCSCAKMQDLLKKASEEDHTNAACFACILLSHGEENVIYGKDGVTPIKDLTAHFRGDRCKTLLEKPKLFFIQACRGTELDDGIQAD
T1 sequence (P55210 207-303 limits assumed): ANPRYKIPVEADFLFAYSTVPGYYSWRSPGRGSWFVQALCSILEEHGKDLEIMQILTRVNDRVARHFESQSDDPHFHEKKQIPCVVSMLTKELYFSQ
The experiment in a line: Caspase-7 inhibitor screening assay (BioVision kit, DEVD-AFC). The settings on record: for inhibition at 10 µM: read-out: % Inhibition at 10 uM Casp7; for inhibition at 100 µM: read-out: % Inhibition at 100 uM Casp7; for IC50: read-out: IC50 Casp7. A digest of the protocol: (§1)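 Fluorometric read-out of free AFC released from the caspase-specific synthetic substrate. IC50 from concentration series, sometimes narrower.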

Assay [2] concerns the target T2, Caspase-2 (Homo sapiens, UniProt P42575).
T2 construct: mixing the compounds with the respective active caspases; purchased BioVision K152-100
T2 sequence (P42575 170-325 limits assumed): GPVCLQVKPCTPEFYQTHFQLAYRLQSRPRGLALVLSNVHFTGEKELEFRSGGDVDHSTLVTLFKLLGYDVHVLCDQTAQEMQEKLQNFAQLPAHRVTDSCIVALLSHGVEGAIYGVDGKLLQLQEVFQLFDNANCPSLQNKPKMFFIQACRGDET
T2 sequence (P42575 334-452 limits assumed): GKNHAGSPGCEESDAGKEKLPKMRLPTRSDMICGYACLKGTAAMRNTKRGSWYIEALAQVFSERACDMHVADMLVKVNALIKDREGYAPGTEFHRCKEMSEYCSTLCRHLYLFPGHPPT
As to the kind of experiment: Caspase-2 inhibitor screening assay (BioVision kit, VDVAD-AFC). The settings on record: for inhibition at 10 µM: read-out: % Inhibition at 10 uM Casp2; for inhibition at 100 µM: read-out: % Inhibition at 100 uM Casp2; for IC50: read-out: IC50 Casp2. In a few lines:
as §1

Assay [3] has as its target T3, Caspase-8 (Homo sapiens, UniProt Q14790).
T3 construct: mixing the compounds with the respective active caspases; purchased BioVision K158-100
The experiment in a line: Caspase-8 inhibitor screening assay (BioVision kit, IETD-AFC). The following applies: for inhibition at 10 µM: read-out: % Inhibition at 10 uM Casp8; for inhibition at 100 µM: read-out: % Inhibition at 100 uM Casp8; for IC50: read-out: IC50 Casp8. A digest of the protocol:
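Each caspase cleaved its own AFC-labelled peptide substrate, and released AFC was read by fluorescence. % inhibition came from RFU against an uninhibited control.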

Assay [4] concerns the target T4, Caspase-9 (Homo sapiens, UniProt P55211).
T4 construct: purchased BioVision K159-100
T4 sequence (P55211 1-315 limits assumed): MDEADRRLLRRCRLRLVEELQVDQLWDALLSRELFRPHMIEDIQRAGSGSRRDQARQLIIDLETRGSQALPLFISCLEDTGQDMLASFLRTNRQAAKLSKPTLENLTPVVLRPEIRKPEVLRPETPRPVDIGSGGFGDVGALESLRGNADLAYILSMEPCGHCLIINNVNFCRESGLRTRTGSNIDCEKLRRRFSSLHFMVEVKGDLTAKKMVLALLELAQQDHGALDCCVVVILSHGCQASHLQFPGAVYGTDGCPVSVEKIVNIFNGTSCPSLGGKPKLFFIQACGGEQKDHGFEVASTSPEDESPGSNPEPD
T4 sequence (P55211 331-416 limits assumed): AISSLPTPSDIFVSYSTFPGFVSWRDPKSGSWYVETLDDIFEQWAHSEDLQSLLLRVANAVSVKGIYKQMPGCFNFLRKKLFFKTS
The experiment in a line: Caspase-9 inhibitor screening assay (BioVision kit, LEHD-AFC). The following applies: for inhibition at 10 µM: read-out: % Inhibition at 10 uM Casp9; for inhibition at 100 µM: read-out: % Inhibition at 100 uM Casp9; for IC50: read-out: IC50 Casp9. In a few lines:
as §1

Assay [5] deals with T5, Caspase-4 (Homo sapiens, UniProt P49662).
T5 construct: mixing the compounds with the respective active caspases; purchased BioVision K154-100
T5 sequence (P49662 81-270 limits assumed): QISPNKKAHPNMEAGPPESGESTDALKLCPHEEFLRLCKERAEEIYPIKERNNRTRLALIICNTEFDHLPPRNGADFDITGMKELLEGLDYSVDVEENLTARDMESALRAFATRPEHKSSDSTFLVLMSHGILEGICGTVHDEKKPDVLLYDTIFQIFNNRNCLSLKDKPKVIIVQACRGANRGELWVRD
T5 sequence (P49662 290-377 limits assumed): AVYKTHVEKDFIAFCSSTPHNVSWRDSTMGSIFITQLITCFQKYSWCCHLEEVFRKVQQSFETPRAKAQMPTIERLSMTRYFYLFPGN
The experiment in a line: Caspase-4 inhibitor screening assay (BioVision kit, LEVD-AFC). The settings on record: for inhibition at 10 µM: read-out: % Inhibition at 10 uM Casp4; for inhibition at 100 µM: read-out: % Inhibition at 100 uM Casp4; for IC50: read-out: IC50 Casp4. In a few lines: as §1

Assay [6] deals with T6, Caspase-1 (Homo sapiens, UniProt P29466).
T6 construct: mixing the compounds with the respective active caspases; purchased BioVision K151-100
T6 sequence (P29466 120-297 limits assumed): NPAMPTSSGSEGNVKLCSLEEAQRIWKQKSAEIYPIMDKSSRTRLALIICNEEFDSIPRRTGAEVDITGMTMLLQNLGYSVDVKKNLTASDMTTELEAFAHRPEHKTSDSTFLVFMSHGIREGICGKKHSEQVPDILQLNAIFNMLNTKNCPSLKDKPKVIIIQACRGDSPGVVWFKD
T6 sequence (P29466 317-404 limits assumed): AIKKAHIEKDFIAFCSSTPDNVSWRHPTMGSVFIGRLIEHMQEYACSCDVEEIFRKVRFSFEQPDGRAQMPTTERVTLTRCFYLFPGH
As to the kind of experiment: Caspase-1 inhibitor screening assay (BioVision kit, YVAD-AFC). The settings on record: for inhibition at 10 µM: read-out: % Inhibition at 10 uM Casp1; for inhibition at 100 µM: read-out: % Inhibition at 100 uM Casp1; for IC50: read-out: IC50 Casp1. A digest of the protocol: as §1

T3 sequence (Q14790 217-374 limits assumed): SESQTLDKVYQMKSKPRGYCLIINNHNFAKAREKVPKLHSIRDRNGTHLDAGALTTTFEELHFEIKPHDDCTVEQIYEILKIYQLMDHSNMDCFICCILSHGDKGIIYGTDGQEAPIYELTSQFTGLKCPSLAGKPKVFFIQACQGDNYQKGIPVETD
T3 sequence (Q14790 385-479 limits assumed): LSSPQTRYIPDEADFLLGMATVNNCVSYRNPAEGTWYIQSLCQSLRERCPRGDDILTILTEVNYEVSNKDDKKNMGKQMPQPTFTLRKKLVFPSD

For the molecule `CC(C)(C)OC(=O)CC[C@H](NC(=O)OC(C)(C)C)C(=O)N[C@H](/C=C/S(C)(=O)=O)CC(=O)OC(C)(C)C` [Compound 21, Boc-Glu(O—tBu)-Asp (O—tBu)-methyl vinyl sulfone], the inhibition (in general, the percentage by which the read-out fell short of the control) at 10 µM turned out to be 0% in assay [1] (10 uM); 14% in assay [2]; 3% in assay [3] (10 uM); 1% in assay [4] (10 uM); 0% in assay [5]; 2% in assay [6]. Further, the inhibition at 100 µM in assay [1] (100 uM) was determined as 0%; in assay [2] it was 18%; in assay [3] (100 uM), 4%; in assay [4] (100 uM), 10%; in assay [5], 4%; in assay [6] it was 2%. The IC50 in assay [1], in assay [2], in assay [3], in assay [4], in assay [5] and in assay [6] was above 100 µM each time.
In the case of `CS(=O)(=O)/C=C/[C@H](CC(=O)O)NC(=O)[C@@H](N)CCC(=O)O` [Compound 22, Glu-Asp methylsulfone], the inhibition at 10 µM amounted to 0% in assay [1] (10 uM); 12% in assay [2]; 3% in assay [3] (10 uM); 2% in assay [4] (10 uM); 0% in assay [5]; 0% in assay [6]. Besides, the inhibition at 100 µM in assay [1] (100 uM) worked out at 0%; in assay [2], 13%; in assay [3] (100 uM) it was 7%; in assay [4] (100 uM), 0%; in assay [5], 0%; in assay [6], 0%. Also, the IC50 in assay [1], in assay [2], in assay [3], in assay [4], in assay [5] and in assay [6] was above 100 µM throughout.
Take `CCOC(=O)/C=C/[C@H](CC(=O)O)NC(=O)[C@H]1CCCN1C(=O)[C@@H](NC(=O)c1ccc(N)c(Cl)c1)C(C)(C)C` [Compound 116, (4-amino-3-chlorobenzene carbonyl)-t-Leu-Pro-Asp Ethyl vinyl ester]: the IC50 – broadly, the concentration needed to halve the response being measured – was 3.6 µM in assay [1]; above 100 µM in assay [2]; 0.6 µM in assay [3]; 0.83 µM in assay [4]; 0.03 µM in assay [5]; 0.01 µM in assay [6].
In the case of `CS(=O)(=O)/C(Cl)=C/[C@@H](N)CC(=O)O` [Compound 4, Asp achlorovinyl methyl vinyl sulfone, Tosyl Salt], the inhibition at 10 µM is 0% in assay [1]; 0% in assay [2]; 6% in assay [3]; 0% in assay [4]; 0% in assay [5]; 0% in assay [6]. The inhibition at 100 µM in assay [1] stood at 0%; in assay [2], 0%; in assay [3] it was 13%; in assay [4] it was 0%; in assay [5] it was 0%; in assay [6] it was 0%. Besides, the concentration for half-maximal inhibition (IC50) in assay [1], in assay [2], in assay [3], in assay [4], in assay [5] and in assay [6] was above 100 µM in each case.
Turning to `CC(C)[C@H](NC(=O)c1ccc2ccccc2n1)C(=O)N[C@H](/C=C/S(C)(=O)=O)CC(=O)O` [Compound 16, 2-Quinoline carbonyl-Val-Asp methyl vinyl sulfone], the inhibition at 10 µM is 3% in assay [1] (10 uM); 1% in assay [2]; 5% in assay [3] (10 uM); 0% in assay [4] (10 uM); 0% in assay [5]; 0% in assay [6]. Also, the inhibition at 100 µM turned out to be 19% in assay [1] (100 uM); 3% in assay [2]; 14% in assay [3] (100 uM); 0% in assay [4] (100 uM); 0% in assay [5]; 0% in assay [6]. The IC50 in assay [1], in assay [2], in assay [3], in assay [4], in assay [5] and in assay [6] was above 100 µM in each case.
